Among the data in patent US7736537B1, “Replacement solvents having improved properties for refrigeration flushes” (Mainstream Engineering Corp., priority 2008, dated 2010) are CS/CS113, SP and BP values, retold here.

The conditions of one data set: cardiac sensitization relative to CFC-113. An excerpt: Parameters such as the lethal dose 50 (LD50), lethal concentration 50 (LC50), cardiac sensitization, skin irritation, and mutagenicity (e.g., via the Ames test) can be used as toxicity metrics. The LDn or LCn abbreviations, where n is the percent lethality, are used for the dose of a toxicant lethal to n % of a test population. […] Cardiac sensitization is a measure of the ability of a compound to cause cardiac arrhythmia under stress.
The property modification components are chosen from a list of potential replacement solvents. These compounds included halogenated compounds such as halogenated acetates, alcohols, alkanes, cycloalkanes, alkenes, cycloalkenes, amines, anhydrides, aromatics, carbonyls, diones, esters, ethers, heterocyclics and ketones.
Turning to `Fc1c(F)c(F)c(C(F)(F)F)c(Br)c1F` [2-bromoheptafluorotoluene], the CS/CS113 turned out to be 21.5.

As for `FC(F)(Br)C=C(C(F)(F)F)C(F)(F)F` [1,1,1,4,4-pentafluoro-4-bromo-2-trifluoromethyl-2-butene], the CS/CS113 was 105.5.

`Fc1c(F)c(F)c(C(F)(F)Br)c(F)c1F` [(bromodifluoromethyl)-pentafluorobenzene]: the CS/CS113 was determined as 28.2.

Consider `O=C(CC(F)(F)F)C(F)(F)Br` [1,1,4,4,4-pentafluoro-1-bromo-2-butanone], for which the CS/CS113 came to 17.1.

`FC(F)(F)/C=C/OC(F)(F)Br` [(E)-1-(bromodifluoromethoxy)-2-(trifluoromethyl)ethene]: the CS/CS113 is 54.3.

On to `FC(F)(F)COCC(F)(F)Br` [(2,2,2-trifluoroethyl)(2-bromo-2,2-difluoroethyl)ether], for which the CS/CS113 was determined as 52.1.

As to `COC(F)(F)C(F)(F)C(F)(F)C(F)(F)F` [methyl perfluorobutyl ether], the CS/CS113 is given as 53.5.

Regarding `FC(F)(F)C(F)(F)C(Cl)Cl` [3,3-dichloro-1,1,1,2,2-pentafluoropropane], the CS/CS113 is on record as 16.7.

For `FC(F)(F)C(F)(F)C(F)(F)C(F)(F)C1(F)OC(F)(F)C(F)(F)C1(F)F` (stereo not drawn) [perfluoro-2-butyltetrahydrofuran], the CS/CS113 was 65.4.

Consider `FC(Cl)C(F)(F)C(F)(F)Cl` (stereo not drawn) [1,3-dichloro-1,1,2,2,3-pentafluoropropane], for which the CS/CS113 came out at 9.2.

Take `FC(F)(F)C(F)(F)C(F)(F)C(F)(F)OC(F)(F)C(F)(F)C(F)(F)C(F)(F)F` [perfluorodibutyl ether]: the CS/CS113 is listed as 896.2.

In the case of `FC(F)(Br)C=C(C(F)(F)F)C(F)(F)F` [4-bromo-1,1,1,4,4-pentafluoro-2-(trifluoromethyl)-2-butene], the CS/CS113 is given as 105.5.

Take `FC(F)=C(F)C(F)(F)C(F)(F)Br` [4-bromo-1,1,2,3,3,4,4-heptafluorobutene]: the CS/CS113 came to 23.4.

For the compound `C=CC(F)(F)Br` [3-bromo-3,3-difluoro-1-propene], the CS/CS113 was found to be 5.9.

As for `C=C(F)C(F)(F)Br` [3-bromo-2,3,3-trifluoropropene], the CS/CS113 was determined as 6.1.

Take `COC(F)=C(C(F)(F)F)C(F)(F)F` [1-methoxy-2-trifluoromethyl-1,3,3,3-tetrafluoro-1-propene]: the CS/CS113 was 154.6.

The conditions of the next data set: solubility parameter, Table 1; cited from earlier work.
On to `Fc1c(F)c(F)c(C(F)(F)F)c(Br)c1F` [2-bromoheptafluorotoluene], for which the SP is on record as 7.64 (cal/cm^3)^1/2.

On to `FC(F)(Br)C=C(C(F)(F)F)C(F)(F)F` [1,1,1,4,4-pentafluoro-4-bromo-2-trifluoromethyl-2-butene], for which the SP was 6.77 (cal/cm^3)^1/2.

`Fc1c(F)c(F)c(C(F)(F)Br)c(F)c1F` [(bromodifluoromethyl)-pentafluorobenzene]: the SP is reported as 7.63 (cal/cm^3)^1/2.

As for `O=C(CC(F)(F)F)C(F)(F)Br` [1,1,4,4,4-pentafluoro-1-bromo-2-butanone], the SP is 7.89 (cal/cm^3)^1/2.

`FC(F)(F)/C=C/OC(F)(F)Br` [(E)-1-(bromodifluoromethoxy)-2-(trifluoromethyl)ethene]: the SP is reported as 7.73 (cal/cm^3)^1/2.

With `FC(F)(F)COCC(F)(F)Br` [(2,2,2-trifluoroethyl)(2-bromo-2,2-difluoroethyl)ether], the SP is listed as 7.64 (cal/cm^3)^1/2.

Consider `COC(F)(F)C(F)(F)C(F)(F)C(F)(F)F` [methyl perfluorobutyl ether], for which the SP was 6.75 (cal/cm^3)^1/2.

With `FC(F)(F)C(F)(F)C(Cl)Cl` [3,3-dichloro-1,1,1,2,2-pentafluoropropane], the SP is recorded as 7.26 (cal/cm^3)^1/2.

`FC(F)(F)C(F)(F)C(F)(F)C(F)(F)C1(F)OC(F)(F)C(F)(F)C1(F)F` (stereo not drawn) [perfluoro-2-butyltetrahydrofuran]: the SP was 6.94 (cal/cm^3)^1/2.

`FC(Cl)C(F)(F)C(F)(F)Cl` (stereo not drawn) [1,3-dichloro-1,1,2,2,3-pentafluoropropane]: the SP is 7.31 (cal/cm^3)^1/2.

As to `FC(F)(F)C(F)(F)C(F)(F)C(F)(F)OC(F)(F)C(F)(F)C(F)(F)C(F)(F)F` [perfluorodibutyl ether], the SP was 6.65 (cal/cm^3)^1/2.

Regarding `FC(F)(Br)C=C(C(F)(F)F)C(F)(F)F` [4-bromo-1,1,1,4,4-pentafluoro-2-(trifluoromethyl)-2-butene], the SP is reported as 6.74 (cal/cm^3)^1/2.

Consider `FC(F)=C(F)C(F)(F)C(F)(F)Br` [4-bromo-1,1,2,3,3,4,4-heptafluorobutene], for which the SP is 6.78 (cal/cm^3)^1/2.

On to `C=CC(F)(F)Br` [3-bromo-3,3-difluoro-1-propene], for which the SP was 7.89 (cal/cm^3)^1/2.

Regarding `C=C(F)C(F)(F)Br` [3-bromo-2,3,3-trifluoropropene], the SP is recorded as 7.66 (cal/cm^3)^1/2.

For the compound `COC(F)=C(C(F)(F)F)C(F)(F)F` [1-methoxy-2-trifluoromethyl-1,3,3,3-tetrafluoro-1-propene], the SP was 7.09 (cal/cm^3)^1/2.

For a further data set the following is noted: Table 1; cited from earlier work.
Regarding `Fc1c(F)c(F)c(C(F)(F)F)c(Br)c1F` [2-bromoheptafluorotoluene], the BP is listed as 151.3 C.

With `FC(F)(Br)C=C(C(F)(F)F)C(F)(F)F` [1,1,1,4,4-pentafluoro-4-bromo-2-trifluoromethyl-2-butene], the BP is on record as 61.0 C.

As for `Fc1c(F)c(F)c(C(F)(F)Br)c(F)c1F` [(bromodifluoromethyl)-pentafluorobenzene], the BP is reported as 153.3 C.

Take `O=C(CC(F)(F)F)C(F)(F)Br` [1,1,4,4,4-pentafluoro-1-bromo-2-butanone]: the BP is 89.0 C.

As for `FC(F)(F)/C=C/OC(F)(F)Br` [(E)-1-(bromodifluoromethoxy)-2-(trifluoromethyl)ethene], the BP is given as 57.8 C.

Consider `FC(F)(F)COCC(F)(F)Br` [(2,2,2-trifluoroethyl)(2-bromo-2,2-difluoroethyl)ether], for which the BP is 73.0 C.

As to `COC(F)(F)C(F)(F)C(F)(F)C(F)(F)F` [methyl perfluorobutyl ether], the BP is reported as 51.0 C.

`FC(F)(F)C(F)(F)C(Cl)Cl` [3,3-dichloro-1,1,1,2,2-pentafluoropropane]: the BP was 48.5 C.

Regarding `FC(F)(F)C(F)(F)C(F)(F)C(F)(F)C1(F)OC(F)(F)C(F)(F)C1(F)F` (stereo not drawn) [perfluoro-2-butyltetrahydrofuran], the BP is 103.0 C.

Regarding `FC(Cl)C(F)(F)C(F)(F)Cl` (stereo not drawn) [1,3-dichloro-1,1,2,2,3-pentafluoropropane], the BP is 52.7 C.

`FC(F)(F)C(F)(F)C(F)(F)C(F)(F)OC(F)(F)C(F)(F)C(F)(F)C(F)(F)F` [perfluorodibutyl ether]: the BP is 110.1 C.

In the case of `FC(F)(Br)C=C(C(F)(F)F)C(F)(F)F` [4-bromo-1,1,1,4,4-pentafluoro-2-(trifluoromethyl)-2-butene], the BP is listed as 61.0 C.

Turning to `FC(F)=C(F)C(F)(F)C(F)(F)Br` [4-bromo-1,1,2,3,3,4,4-heptafluorobutene], the BP is reported as 51.5 C.

For `C=CC(F)(F)Br` [3-bromo-3,3-difluoro-1-propene], the BP is reported as 42.0 C.

For `C=C(F)C(F)(F)Br` [3-bromo-2,3,3-trifluoropropene], the BP is 41.6 C.

Regarding `COC(F)=C(C(F)(F)F)C(F)(F)F` [1-methoxy-2-trifluoromethyl-1,3,3,3-tetrafluoro-1-propene], the BP is on record as 44.5 C.
